Patent US8030498B2, “Benzoylpyrazole compounds and herbicides containing them” (Ishihara Sangyo Kaisha, Ltd., priority 2005, dated 2011)

How the values were obtained:
greenfoxtail = assay: Test Example 2: soil application on the day after sowing, growth inhibition rate, greenfoxtail; assay type: in vivo, Setaria viridis L.; settings: 250 g/ha active ingredient, observed on 19th to 24th day
Summary of the method: (§1)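 Upland soil pots sown with crop and weed seeds; next day wettable powder or emulsifiable concentrate at prescribed active-ingredient amounts, diluted to 500 L/ha water, sprayed onto soil. Growth inhibition scored visually 19–24 days later, 0 (as untreated) to 100% (complete kill).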

corn = assay: Test Example 2: soil application on the day after sowing, growth inhibition rate, corn; assay type: in vivo, Zea mays L.; settings: 250 g/ha active ingredient, observed on 19th to 24th day
Summary of the method: as §1

corn (Zea mays L.) = assay: Test Example 1: foliar treatment, growth inhibition rate, corn; assay type: in vivo; settings: visually observed 17th to 23rd day after application
Summary of the method: (§2)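 Potted upland soil; compounds as wettable powders or emulsifiable concentrates diluted in water at 500 L/ha plus 0.1 vol % spreader, foliar-sprayed at defined leaf stages (rice 1.0–2.5, wheat 1.7–3.4, corn 2.0–3.5, greenfoxtail 1.0–3.0). Growth inhibition (0–100%) scored visually 17–23 days after application.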

[1] = system: soybean (Glycine max Merr.); assay: Test Example 1: foliar treatment, growth inhibition rate, soybean; assay type: in vivo; settings: visually observed 17th to 23rd day after application
Summary of the method: (§3)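 Visual scoring of growth inhibition, 0% (untreated) to 100% (complete kill), on days 17–23 following post-emergence spray of formulated compound in water (500 L/ha, 0.1 vol % spreader); plants treated at set leaf stages, e.g. corn 2.0–3.5, wheat 1.7–3.4.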

[2] = system: velvetleaf (Abutilon theophrasti MEDIC.); assay: Test Example 1: foliar treatment, growth inhibition rate, velvetleaf; assay type: in vivo; settings: visually observed 17th to 23rd day after application
Summary of the method: (§4)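 Seeds were sown in upland field soil in pots. At the target leaf stage (corn 2.0–3.5; greenfoxtail 1.0–3.0; rice 1.0–2.5; wheat 1.7–3.4), the formulated compound, diluted at a water volume of 500 L/ha with 0.1 vol % spreader, was applied by small sprayer. Plants were rated by eye on days 17–23.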

[3] = system: barnyardgrass (Echinochloa crus-galli L.); assay: Test Example 1: foliar treatment, growth inhibition rate, barnyardgrass; assay type: in vivo; settings: visually observed 17th to 23rd day after application
Summary of the method: as §4

redroot pigweed = assay: Test Example 2: soil application on the day after sowing, growth inhibition rate, redroot pigweed; assay type: in vivo, Amaranthus retroflexus L.; settings: 250 g/ha active ingredient, observed on 19th to 24th day
Summary of the method: as §1

crabgrass = assay: Test Example 2: soil application on the day after sowing, growth inhibition rate, crabgrass; assay type: in vivo, Digitaria sanguinalis L.; settings: 250 g/ha active ingredient, observed on 19th to 24th day
Summary of the method: as §1

soybean = assay: Test Example 2: soil application on the day after sowing, growth inhibition rate, soybean; assay type: in vivo, Glycine max Merr.; settings: 250 g/ha active ingredient, observed on 19th to 24th day
Summary of the method: as §1

[4] = system: greenfoxtail (Setaria viridis L.); assay: Test Example 1: foliar treatment, growth inhibition rate, greenfoxtail; assay type: in vivo; settings: visually observed 17th to 23rd day after application
Summary of the method: as §2

barnyardgrass = assay: Test Example 2: soil application on the day after sowing, growth inhibition rate, barnyardgrass; assay type: in vivo, Echinochloa crus-galli L.; settings: 250 g/ha active ingredient, observed on 19th to 24th day
Summary of the method: as §1

wheat (Triticum spp.) = assay: Test Example 1: foliar treatment, growth inhibition rate, wheat; assay type: in vivo; settings: visually observed 17th to 23rd day after application
Summary of the method: as §2

rice (Oryza sativa L.) = assay: Test Example 1: foliar treatment, growth inhibition rate, rice; assay type: in vivo; settings: visually observed 17th to 23rd day after application
Summary of the method: as §2

[5] = system: crabgrass (Digitaria sanguinalis L.); assay: Test Example 1: foliar treatment, growth inhibition rate, crabgrass; assay type: in vivo; settings: visually observed 17th to 23rd day after application
Summary of the method: as §3

prickly sida = assay: Test Example 2: soil application on the day after sowing, growth inhibition rate, prickly sida; assay type: in vivo, Sida spinosa L.; settings: 250 g/ha active ingredient, observed on 19th to 24th day
Summary of the method: as §1

[6] = system: prickly sida (Sida spinosa L.); assay: Test Example 1: foliar treatment, growth inhibition rate, prickly sida; assay type: in vivo; settings: visually observed 17th to 23rd day after application
Summary of the method: as §3

velvetleaf = assay: Test Example 2: soil application on the day after sowing, growth inhibition rate, velvetleaf; assay type: in vivo, Abutilon theophrasti MEDIC.; settings: 250 g/ha active ingredient, observed on 19th to 24th day
Summary of the method: as §1

wheat = assay: Test Example 2: soil application on the day after sowing, growth inhibition rate, wheat; assay type: in vivo, Triticum spp.; settings: 250 g/ha active ingredient, observed on 19th to 24th day
Summary of the method: as §1

[7] = system: redroot pigweed (Amaranthus retroflexus L.); assay: Test Example 1: foliar treatment, growth inhibition rate, redroot pigweed; assay type: in vivo; settings: visually observed 17th to 23rd day after application
Summary of the method: as §3

rice = assay: Test Example 2: soil application on the day after sowing, growth inhibition rate, rice; assay type: in vivo, Oryza sativa L.; settings: 250 g/ha active ingredient, observed on 19th to 24th day
Summary of the method: as §1

SMILES | Growth inhibition rate (%) Greenfoxtail (greenfoxtail) | Growth inhibition rate (%) Corn (corn) | Growth inhibition rate (%) redroot pigweed (redroot pigweed) | Growth inhibition rate (%) Crabgrass (crabgrass) | Growth inhibition rate (%) Soybean (soybean) | Growth inhibition rate (%) Barnyardgrass (barnyardgrass) | Growth inhibition rate (%) Prickly sida (prickly sida) | Growth inhibition rate (%) Velvetleaf (velvetleaf) | Growth inhibition rate (%) Wheat (wheat) | Growth inhibition rate (%) Rice (rice) | Growth inhibition rate (%) Soybean ([1]; 31 g/ha active ingredient) | Growth inhibition rate (%) Prickly sida ([6]; 31 g/ha active ingredient) | Growth inhibition rate (%) redroot pigweed ([7]; 31 g/ha active ingredient) | Growth inhibition rate (%) Corn (corn (Zea mays L.); 31 g/ha active ingredient) | Growth inhibition rate (%) Velvetleaf ([2]; 31 g/ha active ingredient) | Growth inhibition rate (%) Barnyardgrass ([3]; 31 g/ha active ingredient) | Growth inhibition rate (%) Greenfoxtail ([4]; 31 g/ha active ingredient) | Growth inhibition rate (%) Wheat (wheat (Triticum spp.); 31 g/ha active ingredient) | Growth inhibition rate (%) Rice (rice (Oryza sativa L.); 31 g/ha active ingredient) | Growth inhibition rate (%) Crabgrass ([5]; 31 g/ha active ingredient) | other results
CCSC(=O)Oc1c(C(=O)c2ccc(S(C)(=O)=O)c(SC)c2Cl)cnn1C [compound 212] | 0% | 0% | 80% | 40% | 0% | 50% | 50% | 0% | 0% | 0% | – | – | – | – | – | – | – | – | – | – | Growth inhibition rate (%) Corn (corn (Zea mays L.); 63 g/ha active ingredient): 0%; Growth inhibition rate (%) Soybean ([1]; 63 g/ha active ingredient): 90%; Growth inhibition rate (%) Velvetleaf ([2]; 63 g/ha active ingredient): 60%; Growth inhibition rate (%) Barnyardgrass ([3]; 63 g/ha active ingredient): 100%; Growth inhibition rate (%) Greenfoxtail ([4]; 63 g/ha active ingredient): 60%; Growth inhibition rate (%) Wheat (wheat (Triticum spp.); 63 g/ha active ingredient): 0%; Growth inhibition rate (%) Rice (rice (Oryza sativa L.); 63 g/ha active ingredient): 30%; Growth inhibition rate (%) Crabgrass ([5]; 63 g/ha active ingredient): 50%; Growth inhibition rate (%) Prickly sida ([6]; 63 g/ha active ingredient): 40%; Growth inhibition rate (%) redroot pigweed ([7]; 63 g/ha active ingredient): 100%
CCSC(=O)Oc1c(C(=O)c2ccc(S(C)(=O)=O)c(OC(F)F)c2C)cnn1C [Compound No. 38, 5-(ethylthio)carbonyloxy-1-methylpyrazol-4-yl 3-(difluoromethoxy)-2-methyl-4-(methylsulfonyl)phenyl ketone] | – | – | – | – | – | – | – | – | – | – | 70% | 40% | 20% | – | – | – | – | – | – | – | inhibition at 250 g/ha (greenfoxtail; Setaria viridis): 70%; inhibition at 250 g/ha (corn; Zea mays): 0%; pest or weed control at 31 g/ha (corn (Zea mays L.); Zea mays, 31 g/ha active ingredient): 0%; pest or weed control at 31 g/ha ([2]; Abutilon theophrasti, 31 g/ha active ingredient): 60%; pest or weed control at 31 g/ha ([3]; Echinochloa crus-galli, 31 g/ha active ingredient): 80%; inhibition at 250 g/ha (redroot pigweed; Amaranthus retroflexus): 90%; inhibition at 250 g/ha (crabgrass; Digitaria sanguinalis): 95%; inhibition at 250 g/ha (soybean; Glycine max): 0%; pest or weed control at 31 g/ha ([4]; Setaria viridis, 31 g/ha active ingredient): 30%; inhibition at 250 g/ha (barnyardgrass; Echinochloa crus-galli): 90%; pest or weed control at 31 g/ha (wheat (Triticum spp.); Triticum, 31 g/ha active ingredient): 0%; pest or weed control at 31 g/ha (rice (Oryza sativa L.); Oryza sativa, 31 g/ha active ingredient): 40%; pest or weed control at 31 g/ha ([5]; Digitaria sanguinalis, 31 g/ha active ingredient): 0%; inhibition at 250 g/ha (prickly sida; Sida spinosa): 70%; inhibition at 250 g/ha (velvetleaf; Abutilon theophrasti): 20%; inhibition at 250 g/ha (wheat; Triticum aestivum): 0%; inhibition at 250 g/ha (rice; Oryza sativa): 60%
CCSC(=O)Oc1c(C(=O)c2ccc(C(F)(F)F)cc2S(C)(=O)=O)cnn1CC [compound 68] | 30% | 0% | 98% | 60% | 40% | 100% | 95% | 100% | 0% | 100% | 70% | 70% | 75% | 10% | 80% | 95% | 60% | 0% | 60% | 40% | –
CCCCCCCc1c(S(C)(=O)=O)ccc(C(=O)c2cnn(C)c2OC(=O)SCC)c1C [compound 225] | 0% | 0% | 30% | 0% | 0% | 0% | 0% | 0% | 0% | 0% | 50% | 0% | 0% | 0% | 0% | 30% | 20% | 0% | 0% | 0% | –
CCCOC(=O)c1c(S(C)(=O)=O)ccc(C(=O)c2cnn(CC)c2OC(=O)SCC)c1Cl [compound 60] | 60% | 0% | 95% | 100% | 20% | 100% | 70% | 60% | 0% | 40% | 50% | 70% | 80% | 0% | 70% | 95% | 60% | 0% | 70% | 90% | –
CCCOc1c(S(C)(=O)=O)ccc(C(=O)c2cnn(C)c2OC(=O)SCC)c1C [compound 66] | 40% | 0% | 95% | 90% | 0% | 80% | 90% | 40% | 0% | 90% | 98% | 75% | 95% | 0% | 95% | 95% | 100% | 10% | 60% | 98% | –
